One may read the IC50 as the concentration at which inhibition is half-maximal.

Each structure is given as a SMILES string.

Data set [1] deals with T1, TP receptor (Homo sapiens, UniProt P21731).
T1 construct: endogenous in cells; host or cells: washed human platelets
T1 sequence (P21731 1-343): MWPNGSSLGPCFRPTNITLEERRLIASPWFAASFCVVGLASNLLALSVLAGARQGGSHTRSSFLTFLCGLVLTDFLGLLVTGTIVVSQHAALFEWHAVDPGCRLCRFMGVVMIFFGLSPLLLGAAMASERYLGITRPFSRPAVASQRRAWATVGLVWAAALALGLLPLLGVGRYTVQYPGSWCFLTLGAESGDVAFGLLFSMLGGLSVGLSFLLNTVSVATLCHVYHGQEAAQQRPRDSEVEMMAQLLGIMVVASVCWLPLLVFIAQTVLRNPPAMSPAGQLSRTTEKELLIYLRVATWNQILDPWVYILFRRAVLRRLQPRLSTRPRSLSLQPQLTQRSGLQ
Nature of the data set: platelet aggregation evoked by I-BOP. The format is cell-based. The settings on record: 2 ng/0.5 ml, data not shown. The method, then:
Venous blood was obtained from healthy human subjects who had not taken NSAID's for at least two weeks. Blood was drawn into plastic syringes containing ACD. It was immediately centrifuged at 23° at 200×g for 15 min. The platelet rich plasma was transferred into fresh plastic tubes and centrifuged at 400×g for 5 min. The supernatant was discarded and the platelet sediment was resuspended in fresh medium containing NaCl (137 mM), KCl (1 mM), NaH2PO4, glucose (5.5 mM), HEPES (20 mM) and CaCl2 (1 mM) and allowed to stand at room temperature for 30 min. A platelet count was made, which determined the volume of platelet suspension needed to make up 350×10^6 cells for each measurement. The aliquot was diluted with medium to make 0.5 ml/assay/cuvette. […]
0.5 ml of platelet suspension was added to siliconized glass tubes (four at a time) and heated with magnetic stirring to 37° for 1 min in a platelet aggregometer (PAP-4C). […] The response was recorded for the next 5 min. […] In experiments where the conversion of tritiated PGH2 was to be monitored, the procedure described above was repeated with tritiated PGH2 instead of unlabeled PGH2. After extraction of the sample as described above, the radiolabeled compounds were analyzed by TLC. Dose response curves for varying amounts of test compounds were generated and the data expressed as % inhibition of collagen-induced platelet aggregation. […]

The target in data set [2] is T2, platelet TP receptor (Homo sapiens, UniProt P21731).
T2 construct: endogenous in cells; host or cells: washed human platelets
T2 sequence (P21731 1-343): T1 sequence (P21731 1-343)
Nature of the data set: binding of 125I-BOP to platelets. The note with it: 10×10^6 cells/0.5 ml; read-out: IC50 for competition with 125I-BOP binding to platelets. The method, then:
Washed platelets were prepared as described above, except that the platelet suspension was made up at a concentration of 10×10^6 cells/0.5 ml. The binding assay involved the addition of radioligand (30,000 cpm ^125I-BOP) to all tubes in triplicate, and either various doses of unlabeled I-BOP (10^−9-10^−7 M), PBT-3 (10^−9-10^−7 M) or U46619 (10^−9-10^−7 M) in 1 μl ethanol. Additional tubes containing excess unlabeled I-BOP were included to assess the extent of non-specific binding.

Data set [3] in a line: intra ocular pressure in rats, eye drops, TonoPen. The format is in vivo, Brown Norway rats. The note with it: one drop daily to left eye, after 10 days' treatment, vs untreated right eye. The method, then:
Brown Norway rats (300 g) were purchased from Charles River (St. Constant, Que), and housed (two/cage) in an animal facility with free access to food and water. A light cycle of 12 h on and 12 h off was maintained. Animals were allowed to adjust for one week prior to treatment during which period they were handled daily to get them familiarized with the procedures.
Prior to treatment with test drugs, the rats' intra ocular pressures (IOP) were measured to establish baseline readings. One drop of Didocaine (0.5%, Dioptic Labs, Markham, Ont) was administered to each eye, and the pressure in each eye was measured with a TonoPen (Mentor XL, Innova Medical Ophthalmics, Toronto). The treatment protocol consisted of daily administration of one drop of one of the following substances to the left eye, the right eye being left untreated to act as a control. […] Following this, the animals were left without treatment for 2 weeks (wash-out), and then treatment was started again, the same animals receiving the same drugs. Results are calculated from at least 30 readings/test animal and presented as the mean±SEM (left eye vs right eye), with the exclusion of readings >50 and <10 which were considered spurious and artifactual readings.

In data set [4] the test system is human platelets. Nature of the data set: collagen-evoked aggregation of washed human platelets. The format is cell-based. The note with it: single dose 1 μg added 2 min prior to collagen (2 μg); 350×10^6 washed human platelets in 0.5 ml. The method, then: Venous blood was obtained from healthy human subjects who had not taken NSAID's for at least two weeks. Blood was drawn into plastic syringes containing ACD. […] The platelet rich plasma was transferred into fresh plastic tubes and centrifuged at 400×g for 5 min. […] A platelet count was made, which determined the volume of platelet suspension needed to make up 350×10^6 cells for each measurement. The aliquot was diluted with medium to make 0.5 ml/assay/cuvette. Appropriate calibration of the aggregometer (PAP-4C) for 0% and 100% transmission was carried out through the use of a sample of platelet suspension and cell-free medium (37).
(§1) 0.5 ml of platelet suspension was added to siliconized glass tubes (four at a time) and heated with magnetic stirring to 37° for 1 min in a platelet aggregometer (PAP-4C). Either vehicle alone (ethanol, 1 μl) or hepoxilin analog was then added, followed two min later by agonist (collagen: 2 μg; PGH2: 100 ng/0.5 ml; U46619: 10 ng/0.5 ml or I-BOP: 2 ng/0.5 ml). The response was recorded for the next 5 min. In experiments where analysis of TxB2 and HHT were to be made by HPLC, the platelet suspension at the end of the experiment was diluted with ethyl acetate, 100 ng of prostaglandin B1 was added as internal standard, and the mixture was acidified to pH 3 with 0.1 N HCl. After centrifugation, the organic layer was separated, washed twice with water to neutrality, and evaporated to dryness. Half of the sample was taken and was resuspended in 1 ml ethyl acetate containing 20 μg ADAM reagent, and was left in the dark for 2 h (38). The solvent was then evaporated and the residue was acetylated with a solution of pyridine/acetic anhydride (3/1, v/v) during 16 h at 23°. The reagents were evaporated to dryness and the residue was resuspended in acetonitrile/water for HPLC analysis. In experiments where the conversion of tritiated PGH2 was to be monitored, the procedure described above was repeated with tritiated PGH2 instead of unlabeled PGH2. After extraction of the sample as described above, the radiolabeled compounds were analyzed by TLC. Dose response curves for varying amounts of test compounds were generated and the data expressed as % inhibition of collagen-induced platelet aggregation. Each point was investigated 5 times and statistical analysis of the data was carried out using Macintosh Statview statistical software.

Data set [5] addresses T1, TP receptor. Nature of the data set: platelet aggregation evoked by the TxA2 mimic U46619. The format is cell-based. The note with it: aspirin 20 μg. The method, then:
Venous blood was obtained from healthy human subjects who had not taken NSAID's for at least two weeks. Blood was drawn into plastic syringes containing ACD. It was immediately centrifuged at 23° at 200×g for 15 min. The platelet rich plasma was transferred into fresh plastic tubes and centrifuged at 400×g for 5 min. The supernatant was discarded and the platelet sediment was resuspended in fresh medium containing NaCl (137 mM), KCl (1 mM), NaH2PO4, glucose (5.5 mM), HEPES (20 mM) and CaCl2 (1 mM) and allowed to stand at room temperature for 30 min. A platelet count was made, which determined the volume of platelet suspension needed to make up 350×10^6 cells for each measurement. The aliquot was diluted with medium to make 0.5 ml/assay/cuvette. Appropriate calibration of the aggregometer (PAP-4C) for 0% and 100% transmission was carried out through the use of a sample of platelet suspension and cell-free medium (37).
as §1

For data set [6] the following is noted: cited from earlier work.

For `O=C(O)CCC/C=C\C[C@@H]1[C@@H](/C=C/[C@H](O)COc2ccc(I)cc2)[C@H]2CC[C@@H]1O2` (relative stereo) [I-BOP, 5-heptenoic acid, 7-[3-[3-hydroxy-4-(4-iodophenoxy)-1-butenyl]-7-oxabicyclo [2.2.1]hept-2-yl]-,[15-[1α, 2α(Z), 3β(1E,3S*), 4α]], reference compound], in data set [1], the “aggregation caused by the agonist” value is given as 70%. Further, in data set [2], the IC50 came to 0.5 nM.

Consider `CC(C)(C)NC[C@H](O)COc1cccc2c1CCCC2=O` [O-bunolol, reference compound], for which the “effect on intra ocular pressure (IOP)” value in data set [3] (0.5%) is recorded as “non-significant rise”.

With `CCCCC/C=C\CC1CC1/C=C/[C@@H](O)C/C=C\CCCC(=O)OC` (stereo partly drawn) [PBT-1, 8(S)-hydroxy-11,12-cyclopropyl-eicosa-5Z,9E,14Z-trienoic acid methyl ester], in data set [4], the “inhibition of collagen-evoked aggregation” value (shortened to “inhibition”) is recorded as “inhibited the collagen effect”.

Turning to `CCCCC/C=C\CC1CC1/C=C/C(O)C/C=C\CCCC(=O)OC` [PBT-2, 8(R)-hydroxy-11,12-cyclopropyl-eicosa-5Z,9E,14Z-trienoic acid methyl ester], the “inhibition” value in data set [4] is on record as “inhibited the collagen effect”.

In the case of `CCCCC/C=C\CC1CC1[C@H](O)/C=C\C/C=C\CCCC(=O)OC` (stereo partly drawn) [PBT-4, 10(R)-hydroxy-11,12-cyclopropyl-eicosa-5Z,8Z,14Z-trienoic acid methyl ester], the “inhibition” value in data set [4] was “inhibited the collagen effect”.

On to `CCCCC/C=C\CC1CC1[C@@H](O)/C=C\C/C=C\CCCC(=O)N[C@H]1C(O)O[C@H](CO)[C@H](O)[C@@H]1O` (stereo partly drawn) [PBT-30, 10(S)-hydroxy-11,12-cyclopropyl-eicosa-5Z, 8Z, 14Z-trienoic acid galactosamide], for which the “effect on intra ocular pressure (IOP)” value in data set [3] (0.005%) is listed as “tended to reduce IOP but the effect did not reach statistical significance”.

`CCCCCC(O)C=CC1C2CC(CO2)C1CC=CCCCC(=O)O` (stereo not drawn) [U46619, 5-heptenoic acid, 7-[6-(3-hydroxy-1-octenyl)-2-oxabicyclo-[2,2,1]-hept-5yl]-[1R-[1α,4α,5β(z), 6α(1E,3S*)]-9,11-dideoxy-9α,11α-methanoepoxyprostaglandin F2α, reference compound]: the IC50 in data set [2] is 4.1 nM.

Take `CC(=O)Oc1ccccc1C(=O)O` [aspirin, reference compound]: the “effect on U46619-evoked aggregation” value in data set [5] is listed as “did not block”.

Regarding `CC(C)OC(=O)CCC/C=C\C[C@@H]1[C@@H](CC[C@@H](O)CCc2ccccc2)[C@H](O)C[C@@H]1O` [latanoprost, reference compound], the “effect on intra ocular pressure (IOP)” value in data set [3] (0.005%) is on record as “significant reduction in IOP”.

Turning to `CCCCC[C@H](O)/C=C/[C@H]1O[C@H]2C[C@H](O2)[C@@H]1C/C=C\CCCC(=O)O` [thromboxane A2 (TxA2), thromboxane A2], in data set [6], the “half life in the body” value is 30 s.

The values are drawn from US8071654B2, “Inhibitors of thromboxane formation and action” (priority 2000, dated 2011).
